# System: SHP-1
# Experiment: SHP-1 phosphorylation in primary patient AML blasts (Western blot)
# Type: cell-based, human
# Settings: collagen alone
# Experimental: FIGS. 4A-4O show the collagen matrix is vital to LAIR-1 induced AML cell death. (FIGS. 4A-C). Flow cytometry quantification of primary live, dead, or apoptotic total blood leukocytes after ex vivo treatment with 10 μg/mL IgG isotype control (gray) or LAIR-1 mAb (red) in the presence (FIG. 4A) or absence (FIG. 4B) of exogenous collagen, or (FIG. 4C), CD451^Lo SSC^Lo blast cells in the presence of isotype control or LAIR-1 mAb. N=3 technical replicates. […] Each dot represents an individual donor. Red shading highlights surface expression >20000 arbitrary units. Blue shading highlights expression <20000 units. Line represents simple linear regression. […] N=4-7 donors. […] Mean pixel density from Western blotting normalized to isotype control condition and graphed relative to total SHP-1. N=3 technical replicates. […] FIGS. 4M and 4N) 4E-BP1 expression as measured by Lumit assay (FIG. 4M) or cleaved caspase-7 as measured by Western blot (FIG. 4N) of cells treated as shown in FIGS. 4I-4K. […] P values calculated by Student's t test. […]
# For assessment of signaling in healthy cells, human monocytes were isolated from PBMCs from two donors using a StemCell monocyte isolation kit (StemCell, Vancouver, BC). […] Data were quantified using FIJI (NIH, MD).
substance,measurement,value
"collagen: plate-coated human Collagen I, LAIR-1 ligand, mimics an extracellular matrix [reference compound]",pSHP-1 relative to control,limited increase

# From patent publication US20240352121A1, “LAIR-1 AGONISTIC ANTIBODIES AND METHODS OF USE THEREOF” (NEXTCURE, INC., priority 2023, published 2024)
